In patent publication US4939241A, “Amino acid derivatives of antitumor activity” (Fujisawa Pharmaceutical Co., Ltd., priority 1987, dated 1990) one finds IC50, LD50 and Solubility data, which are given here for 5 molecules.

Converted amounts (≈) assume the structure as drawn.

Data set [1] has as its system human lung adenocarcinoma A549 cell. Description: Inhibition of human lung adenocarcinoma A549 cell growth in vitro (MTT assay). As to conditions: 168 h, A549 cells, seven days at 37° C. The format is cell-based. The protocol: Inhibition of human lung adenocarcinoma A549 cell growth in vitro by some compounds of the amino acid derivatives (I)
The cytotoxicity test was performed in microtiter plates, with each well containing 3×10^3 A549 cells in 100 μl Dulbecco's minimum essential medium supplemented with 10% fetal calf serum, penicillin (50 units/ml) and streptomycin (50 μg/ml). The cells were incubated at 37° C. for seven days and the colorimetric MTT (tetrazolium) assay was performed according to the method described by Mosmann (J. Immunol. Methods, 65, 55-63, 1983). MTT [3-(4,5-dimethylthiazol-2-yl)-2,5-diphenyl tetrazolium bromide, made by Sigma] was dissolved in PBS at 5 mg/ml and filtered to sterilize and remove a small amount of insoluble residue. After the culture of A549 cells was terminated, this MTT solution (10 μl per 100μl medium) was added to plates were further incubated at 37° C. for 4 hours. Acid-isopropanol (100 μl of 0.04N HCl in isopropanol) was added to all wells and mixed thoroughly to dissolve the dark blue crystals. After all crystals were dissolved, the plates were read on a 2-wavelength microplate photometer (Model MTP-22; Corona Electric Co., Ltd., Katsuta, Japan) at 550 nm, a reference wavelength of 660 nm. The object compound of this invention was dissolved and diluted in Dulbecco's minimum essential medium and added to the culture to give final concentration of 30μg/ml or less.

A short description of data set [2]: Acute toxicity in BDF1 mice by intravenous injection. As to conditions: mouse, in vivo. The protocol: Acute toxicity of FR-900840 substance in BDF1 mice by intravenous injection is 180 mg/kg.
The test system of data set [3] is human mammary adenocarcinoma MCF-7 cell. Description: Inhibition of human mammary adenocarcinoma MCF-7 cell growth in vitro (MTT assay). The format is cell-based. As to conditions: MCF7, 168 h, MCF-7 cells, seven days at 37° C. The protocol:
Inhibition of human mammary adenocarcinoma MCF-7 cell growth in vitro by some compounds of the amino acid derivatives (I)
The cytotoxicity test was performed in microtiter plates, with each well containing 3×10^3 MCF-7 cells in 100 μl Eagle's minimum essential medium supplemented with 10% fetal calf serum, sodium pyruvate, nonessential amino acids, penicillin (50 units/ml) and streptomycin (50 μg/ml). The cells were incubated at 37° C. for seven days in humidified atomosphere of 5% carbon dioxide and 95% of air and the colorimetric MTT assay was performed as described in Test 1.
The test compound was dissolved and diluted in Eagle's minimum essential medium and added to the culture to give final concentration of 30 μg/ml or less.

A short description of data set [4]: Solubility of FR-900840 substance. The format is physicochemical.

For `C[C@@H](O)C(=[N+]=[N-])C(=O)OC[C@H](N)C(=O)O` [Example 1, O-[2-diazo-3(R)-hydroxy-1-oxobutyl]-L-serine], the IC50 in data set [1] was determined as 0.012 ng/mL (≈ 0.0553 nM); in data set [3], 0.0018 ng/mL (≈ 0.00829 nM). Moreover, in data set [2], the LD50 turned out to be 180 mg/kg. For the same molecule, the Solubility result in data set [4] (acetone) is reported as “insoluble”; in data set [4] (benzene), “insoluble”; in data set [4] (chloroform) it was “insoluble”; in data set [4] (diethyl ether), “insoluble”; in data set [4] (ethanol) it was “sparingly soluble”; in data set [4] (ethyl acetate), “insoluble”. Also, the figures for the Solubility result in data set [4] (methanol) and in data set [4] (water) were “sparingly soluble” and “soluble”, respectively.
As to `C[C@@H](O)C(=[N+]=[N-])C(=O)OC[C@H](NC(=O)C(F)(F)F)C(=O)O` [Example 2, O-[2-Diazo-3(R)-hydroxy-1-oxobutyl]-N-trifluoroacetyl-L-serine], the IC50 in data set [1] amounted to 0.0105 ng/mL (≈ 0.0335 nM); in data set [3], 0.0068 ng/mL (≈ 0.0217 nM).
As for `C[C@H](O)C(=[N+]=[N-])C(=O)OC[C@H](N)C(=O)O` [Example 4, O-[2-Diazo-3(S)-hydroxy-1-oxobutyl]-L-serine], the IC50 in data set [1] was determined as 0.018 ng/mL (≈ 0.0829 nM); in data set [3] it was 0.00082 ng/mL (≈ 0.00378 nM).
As for `[N-]=[N+]=C(C(=O)OC[C@H](N)C(=O)O)C(O)c1ccccc1` (stereo partly shown) [Example 5], the IC50 in data set [1] is 0.14 ng/mL (≈ 0.501 nM); in data set [3], 0.076 ng/mL (≈ 0.272 nM).
With `[N-]=[N+]=C(CO)C(=O)OC[C@H](N)C(=O)O` [Example 6, O-(2-Diazo-3-hydroxy-1-oxopropyl)-L-serine], the IC50 in data set [1] was 0.0018 ng/mL (≈ 0.00886 nM); in data set [3], 0.0017 ng/mL (≈ 0.00837 nM).
